In US20100048676A1, “Non-androgen dependent roles for androgen receptor in liver cancer” (University of Rochester, priority 2008, published 2010):
Read-outs that look alike come from different tables or passages of the source.

Experiments:
SKAR7 cells = experiment: ASC-J9 effect on SKAR7 cell growth (MTT assay); type: cell-based, human; details: 5 μM ASC-J9, in the presence of 10 nM DHT
Source text: (§1) FIG. 6. Targeting AR as therapeutic strategy. (A) Establishment of AR siRNA stable transfectants of human SKAR3 cells. Scrambled siRNA (SKAR3-sc, lane 3) and different siRNA targeting AR (SKAR3-si1; SKAR3-si2; SKAR3-si3) stable transfectants derived from SKAR3 cells. LNCaP and SK-Hep1 cells served as positive and negative controls of AR expression, respectively. (B) AR transactivation activity was used to examine the knockdown efficiency of AR siRNA in the SKAR3 cells. The SKAR3-si1 cells were used to compare with SKAR3-sc cells and treated with EtOH and 1 nM DHT for 24 hrs after ARE(4)-luciferase transfection. The readings were normalized with the read out of pRL-TK cotransfection and pooled three individual experiments. (C) AR siRNA effect on SKAR3 cell growth. SKAR3-sc and SKAR3-si1 cells were treated with EtOH or 1 nM DHT, then observed cell growth by counting cells on different days. (D) ASC-J9 effect on SKAR3 and SKAR7 cells. Cells were plated and cultured with EtOH, 10 nM DHT and 5 μM ASC-J9 for different days and examined cell growth using MTT assay. (E) ASC-J9 effect on SKAR3 cell apoptosis and proliferation. Cells were cultured with 10 nM DHT, or 5 μM ASC-J9 for 24 hrs, then detached, stained with PI, assayed immediately by flowcytometry to observe cell apoptosis. […] Six injection sites from 3 mice were measured and pooled. […]

[1] = system: primary liver tumor of AR+/y mice; experiment: Primary liver tumor cells inoculated subcutaneously into nude mice, tumor growth; type: in vivo, mouse; details: I.P. 50 mg/kg/mice twice per week, 17 weeks
Source text: as §1

[2] = injection of ASC-J9 for 15 weeks, mice; cited from earlier work
[3] = system: primary tumor cells isolated from AR+/y mice livers; experiment: Growth of primary cells from DEN-induced AR+/y liver tumors (MTT assay); type: cell-based, mouse
Experimental: (E) Cell growth analysis using MTT assay on the cells derived from AR^+/y primary liver tumor culture in 55-weeks DEN-induced AR^+/y mice. Cells within 3 passages of subculture were used, treated with ethanol (EtOH) or DHT at different concentrations (1 and 10 nM). Cell growth was monitored for a maximum of 8 days and harvested for MTT assay. Values from background readings at 650 nm were subtracted and pooled all MTT assay results from 5 independent experiments.
(F) Primary cells were derived from 55-weeks DEN-induced AR^+/y liver tumors and cultured ex vivo. Cells were treated with ASC-J9 or cotreated with 10 nM DHT for 8 days, then harvested for MTT assay. The result represents three independent experiments.
The hepatic cells were isolated from 55-weeks-old DEN-treated mice and performed primary hepatic cell culture as described previously(30). […] The cells were maintained in DMEM (Invitrogen) with 10% Fetal Calf Serum (FCS), 1% Glutamine; and 1% penicillin/streptomycin. The cell growth assays were performed according to a previous study(32) using cell counting assay or MTT (3-(4,5-Dimethylthiazol-2-yl)-2,5-diphenyltetrazolium bromide) assay(33).

SKAR3 cells [4] = experiment: SKAR3 cell apoptosis, PI staining and flowcytometry; type: cell-based, human; details: 5 μM ASC-J9, 24 hrs, absence or presence of 10 nM DHT
Source text: as §1

SKAR3 cells [5] = experiment: ASC-J9 effect on SKAR3 cell growth (MTT assay); type: cell-based, human; details: 5 μM ASC-J9, in the presence of 10 nM DHT
Source text: as §1

SKAR3 cells [6] = details: 10 nM DHT
Source text: (§2) FIG. 3. […] (A) Apoptotic cells in SKpar and SKAR3 cells. […] (B) Androgen and AR effect on anchorage-dependent cell growth. […] (C) Anchorage-independent cell growth of SKpar and SKAR3 cells. Cell clusters greater than 50 cells were counted as a positive clone.

p53 = details: 10 nM DHT for 2, 4, and 8 hrs, time-dependent
Experimental: (A) p53 protein expression of SKpar and SKAR3 cells. We treated SKpar and SKAR3 cells with 10 nM DHT for 2, 4, and 8 hrs and measured protein abundance by immunoblotting assay using p53 specific antibody. GAPDH served as loading control.
The p53 expression was analyzed using immunoblotting assay(32) to semi-quantitate p53 protein abundance in the hepatic tumor and HCC cells. […] Protein abundance was measured by Western blotting as previously described(38) using specific antibodies against AR (Pharmingen), p53 (Cell Signaling), Gadd45, . . . , and Bcl-2 (Santa Cruz).

SKAR3 cells [7] = details: 1 nM DHT with H2O2 treatment, 24 hrs
Experimental: (B) SKpar and SKAR3 cells were treated with 200 μM H2O2 or 1 nM DHT for 24 hrs and measured ROS level.

SKAR3 cells [8] = details: SKAR3-EtOH vs SKAR3-DHT, 10 nM DHT, 4 days
Experimental: as §2
(§3) The hepatic cells were isolated from 55-weeks-old DEN-treated mice and performed primary hepatic cell culture as described previously(30). The cells were plated onto 100-mm BioCoat mouse collagen I coated dishes (BD Biosciences) at a density of 5×10^5 viable cells/dish in low glucose Dulbecco's modified Eagle's medium (Invitrogen) containing 1% bovine serum albumin, 0.8 mM oleate, […] insulin (4 milliunits/ml), […] dexamethasone, 100 units of penicillin, and 1% of streptomycin/ml. Human HCC cells were obtained from Dr. Y. S. Jou in Acdemia Secienica, Taiwan published previously(31). The cells were maintained in DMEM (Invitrogen) with 10% Fetal Calf Serum (FCS), 1% Glutamine; and 1% penicillin/streptomycin.

SKpar cells = details: SKpar-EtOH vs SKpar-DHT, 10 nM DHT, 4 days
Experimental: as §2, §3

AR transactivation = experiment: ARE(4)-luciferase promoter assay of AR transactivation in SKAR3 sublines; type: cell-based, human; details: 1 nM DHT
Source text: as §1

[9] = system: superoxide dismutase 2 (SOD2); details: 10 nM DHT
Experimental: (§4) FIG. 10. Examination of ROS reducing gene mRNA expression using SKpar and SKAR cells, (A, B) We plated cells and treated as indicated for 24 hrs. We examined Thioreducin-2 (A) and SOD2 (B) mRNA using Q-PCR as described in Methods.
(§5) The mRNA expression of MnSOD (SOD2), Thioreducin-2, and Gadd45 was determined using quantitative RT-PCR (Q-PCR) as previous described(37), and primer sequences are as follows.

thioreducin-2 = details: 10 nM DHT
Experimental: as §4, §5

AR [10] = experiment: AR expression in SKAR3 cells stably transfected with AR-siRNA; type: cell-based, human; details: SKAR3-si1, 2 or 3 vs SKAR3-sc
Source text: as §1

SKAR3 cells [11] = experiment: AR siRNA effect on SKAR3 cell growth (SKAR3-sc vs SKAR3-si1); type: cell-based, human; details: 1 nM DHT
Source text: as §1

AR [12] = details: MCF-7 cells, retrovirus-based vector; cited from earlier work

Question: What does the source list for `COc1ccc(C=CC(=O)C=C(O)C=Cc2ccc(OC)c(OC)c2)cc1OC` [ASC-J9, 5-hydroxy-1,7-bis(3,4-dimethoxyphenyl)-1,4,6-heptatrien-3-one]?
Answer: cell growth (SKAR7 cells): suppression of cell growth; tumor growth [1]: suppression of tumor growth; serum testosterone [2]: little change in serum testosterone; sexual function and fertility [2]: retained normal sexual function and fertility; primary tumor cell growth ([3]; 5 μM ASC-J9, absence or presence of 10 nM DHT, 8 days): suppressed the primary tumor cell growth; cell apoptosis (SKAR3 cells [4]): increased cell apoptosis; cell growth (SKAR3 cells [5]): suppression of cell growth

Question: Which “AR-promoted anchorage-independent cell growth” value (SKAR3 cells [6]) does the source give for `C[C@]12CCC(=O)C[C@@H]1CC[C@@H]1[C@@H]2CC[C@]2(C)[C@@H](O)CC[C@@H]12` [DHT, 5α-dihydrotestosterone] here?
Answer: little influence

Question: And the p53 protein expression (p53)?
Answer: down-regulation of p53

Question: And the “cell growth (cell numbers)” value ([3]; DHT 1 and 10 nM, maximum of 8 days)?
Answer: cell numbers increased in a dose-dependent manner

Question: What about the ROS level (SKAR3 cells [7]) of the same compound?
Answer: further enhanced

Question: What about the cell growth (SKAR3 cells [8]) of the same compound?
Answer: further increased cell growth

Question: What about the cell growth (SKpar cells) of the same compound?
Answer: little effect

Question: What about the “AR transactivation induced by DHT” value (AR transactivation; SKAR3-sc cells) of the same compound?
Answer: could induce substantial AR transactivation

Question: What about the “SOD2 mRNA expression” value ([9]; SKAR3 cells treated with H2O2) of the same compound?
Answer: decreased

Question: What about the “H2O2-induced SOD2 mRNA expression” value ([9]; SKpar cells) of the same compound?
Answer: failed to suppress

Question: And the “thioreducin-2 mRNA expression” value (thioreducin-2; SKAR3 cells treated with H2O2)?
Answer: decreased

Question: And the “H2O2-induced thioreducin-2 mRNA expression” value (thioreducin-2; SKpar cells)?
Answer: failed to suppress

Question: Which AR expression (AR [10]) does the source give for “AR-siRNA: retrovirus-based vector that expresses AR-siRNA; stable SKAR3 sublines SKAR3-si1, 2 or 3 (guide GGGCCCCTGGATGGATAGCTACCTCGAGGTAGCTATCCATCCAGGGGCC)” here?
Answer: substantially knocked down

Question: And the DHT-induced cell growth (SKAR3 cells [11])?
Answer: suppression of DHT-induced cell growth

Question: And the AR knockdown (AR [12])?
Answer: effectively knocked down the AR

Question: What about the “AR-mediated transactivation under AR-siRNA” value (AR transactivation; SKAR3-si1 vs SKAR3-sc, 24 hrs) of the same compound?
Answer: could induce substantial AR transactivation in SKAR3-sc, but not SKAR3-si1 cells
